Data reported in PubChem BioAssay (NCI).
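How tested: cells in 96-well plates exposed to compound for 48 hours at five concentrations. Definition used: TGI = concentration required for complete inhibition of growth.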

Columns and labels:
Test in all cases: NCI-60 cell line screen, 48 h
K-562 leukemia = system: K-562 leukemia
786-0 renal = system: 786-0 renal
A549 NSCLC = system: A549 NSCLC
RXF 393 renal = system: RXF 393 renal
SK-MEL-2 melanoma = system: SK-MEL-2 melanoma
MOLT-4 leukemia = system: MOLT-4 leukemia
HCT-116 colon = system: HCT-116 colon
SR leukemia = system: SR leukemia
HL-60(TB) leukemia = system: HL-60(TB) leukemia
DU-145 prostate = system: DU-145 prostate
HOP-92 NSCLC = system: HOP-92 NSCLC
HCC-2998 colon = system: HCC-2998 colon
U251 CNS = system: U251 CNS
SF-295 CNS = system: SF-295 CNS
NCI-H226 lung = system: NCI-H226 lung
LOX IMVI melanoma = system: LOX IMVI melanoma
ACHN renal = system: ACHN renal
TK-10 renal = system: TK-10 renal
HOP-62 NSCLC = system: HOP-62 NSCLC
OVCAR-4 ovarian = system: OVCAR-4 ovarian
SNB-19 CNS = system: SNB-19 CNS
NCI-H460 lung = system: NCI-H460 lung
HCT-15 colon = system: HCT-15 colon
SW-620 colon = system: SW-620 colon
OVCAR-8 ovarian = system: OVCAR-8 ovarian
UO-31 renal = system: UO-31 renal
UACC-62 melanoma = system: UACC-62 melanoma
KM12 colon = system: KM12 colon
OVCAR-3 ovarian = system: OVCAR-3 ovarian
BT-549 breast = system: BT-549 breast
SK-MEL-5 melanoma = system: SK-MEL-5 melanoma
A498 renal = system: A498 renal
SK-MEL-28 melanoma = system: SK-MEL-28 melanoma
HT29 colon = system: HT29 colon
MDA-N = system: MDA-N
OVCAR-5 ovarian = system: OVCAR-5 ovarian
NCI-H23 lung = system: NCI-H23 lung
PC-3 prostate = system: PC-3 prostate
IGROV1 ovarian = system: IGROV1 ovarian
CAKI-1 renal = system: CAKI-1 renal
EKVX NSCLC = system: EKVX NSCLC
NCI/ADR-RES ovarian = system: NCI/ADR-RES ovarian
CCRF-CEM leukemia = system: CCRF-CEM leukemia
MALME-3M melanoma = system: MALME-3M melanoma
NCI-H522 lung = system: NCI-H522 lung
COLO 205 colon = system: COLO 205 colon
UACC-257 melanoma = system: UACC-257 melanoma
MDA-MB-435 = system: MDA-MB-435
MDA-MB-231 breast = system: MDA-MB-231 breast
MCF7 breast = system: MCF7 breast
SN12C renal = system: SN12C renal
T-47D breast = system: T-47D breast
SNB-75 CNS = system: SNB-75 CNS
SF-268 CNS = system: SF-268 CNS
RPMI-8226 leukemia = system: RPMI-8226 leukemia
SK-OV-3 ovarian = system: SK-OV-3 ovarian
SF-539 CNS = system: SF-539 CNS
M14 melanoma = system: M14 melanoma

Q: `COC(=O)C1C(=O)CC(C)(O)C(C(=O)OC)C1c1ccc(N(C)C)cc1` (stereo unspecified) was tested. Which TGI (K-562 leukemia) did it give?
A: > 100 µM

Q: And the TGI (786-0 renal)?
A: 24.7 µM

Q: What about the TGI (A549 NSCLC) of the same molecule?
A: > 100 µM

Q: And the TGI (RXF 393 renal)?
A: > 100 µM

Q: And the TGI (SK-MEL-2 melanoma)?
A: > 100 µM

Q: And the TGI (MOLT-4 leukemia)?
A: > 100 µM

Q: And the TGI (HCT-116 colon)?
A: 21 µM

Q: What about the TGI (SR leukemia) of the same molecule?
A: > 100 µM

Q: And the TGI (HL-60(TB) leukemia)?
A: > 100 µM

Q: What about the TGI (DU-145 prostate) of the same molecule?
A: > 100 µM

Q: And the TGI (HOP-92 NSCLC)?
A: > 100 µM

Q: And the TGI (HCC-2998 colon)?
A: > 100 µM

Q: And the TGI (U251 CNS)?
A: > 100 µM

Q: And the TGI (SF-295 CNS)?
A: > 100 µM

Q: What about the TGI (NCI-H226 lung) of the same molecule?
A: > 100 µM

Q: What about the TGI (LOX IMVI melanoma) of the same molecule?
A: 24.4 µM

Q: And the TGI (ACHN renal)?
A: > 100 µM

Q: What about the TGI (TK-10 renal) of the same molecule?
A: > 100 µM

Q: And the TGI (HOP-62 NSCLC)?
A: > 100 µM

Q: What about the TGI (OVCAR-4 ovarian) of the same molecule?
A: > 100 µM

Q: And the TGI (SNB-19 CNS)?
A: > 100 µM

Q: What about the TGI (NCI-H460 lung) of the same molecule?
A: > 100 µM

Q: And the TGI (HCT-15 colon)?
A: > 100 µM

Q: And the TGI (SW-620 colon)?
A: > 100 µM

Q: And the TGI (OVCAR-8 ovarian)?
A: > 100 µM

Q: What about the TGI (UO-31 renal) of the same molecule?
A: > 100 µM

Q: And the TGI (UACC-62 melanoma)?
A: > 100 µM

Q: And the TGI (KM12 colon)?
A: > 100 µM

Q: What about the TGI (OVCAR-3 ovarian) of the same molecule?
A: > 100 µM

Q: What about the TGI (BT-549 breast) of the same molecule?
A: > 100 µM

Q: What about the TGI (SK-MEL-5 melanoma) of the same molecule?
A: > 100 µM

Q: And the TGI (A498 renal)?
A: > 100 µM

Q: What about the TGI (SK-MEL-28 melanoma) of the same molecule?
A: > 100 µM

Q: And the TGI (HT29 colon)?
A: > 100 µM

Q: And the TGI (MDA-N)?
A: > 100 µM

Q: And the TGI (OVCAR-5 ovarian)?
A: > 100 µM

Q: And the TGI (NCI-H23 lung)?
A: > 100 µM

Q: And the TGI (PC-3 prostate)?
A: > 100 µM

Q: What about the TGI (IGROV1 ovarian) of the same molecule?
A: > 100 µM

Q: What about the TGI (CAKI-1 renal) of the same molecule?
A: > 100 µM

Q: What about the TGI (EKVX NSCLC) of the same molecule?
A: > 100 µM

Q: And the TGI (NCI/ADR-RES ovarian)?
A: > 100 µM

Q: And the TGI (CCRF-CEM leukemia)?
A: > 100 µM

Q: What about the TGI (MALME-3M melanoma) of the same molecule?
A: > 100 µM

Q: What about the TGI (NCI-H522 lung) of the same molecule?
A: > 100 µM

Q: And the TGI (COLO 205 colon)?
A: > 100 µM

Q: And the TGI (UACC-257 melanoma)?
A: > 100 µM

Q: What about the TGI (MDA-MB-435) of the same molecule?
A: > 100 µM

Q: What about the TGI (MDA-MB-231 breast) of the same molecule?
A: > 100 µM

Q: What about the TGI (MCF7 breast) of the same molecule?
A: > 100 µM

Q: And the TGI (SN12C renal)?
A: > 100 µM

Q: And the TGI (T-47D breast)?
A: > 100 µM

Q: And the TGI (SNB-75 CNS)?
A: > 100 µM

Q: What about the TGI (SF-268 CNS) of the same molecule?
A: > 100 µM

Q: What does the source list for `O=C1CCCCC/C1=C\c1cccc(F)c1`?
A: TGI (RPMI-8226 leukemia): 97.5 µM; TGI (K-562 leukemia): > 100 µM; TGI (786-0 renal): > 100 µM; TGI (A549 NSCLC): > 100 µM; TGI (RXF 393 renal): > 100 µM; TGI (SK-MEL-2 melanoma): > 100 µM; TGI (MOLT-4 leukemia): > 100 µM; TGI (SK-OV-3 ovarian): > 100 µM; TGI (HCT-116 colon): > 100 µM; TGI (SR leukemia): 61.2 µM; TGI (HL-60(TB) leukemia): > 100 µM; TGI (DU-145 prostate): > 100 µM; TGI (HCC-2998 colon): > 100 µM; TGI (U251 CNS): > 100 µM; TGI (SF-295 CNS): > 100 µM; TGI (ACHN renal): > 100 µM; TGI (TK-10 renal): > 100 µM; TGI (HOP-62 NSCLC): > 100 µM; TGI (SNB-19 CNS): > 100 µM; TGI (NCI-H460 lung): > 100 µM; TGI (HCT-15 colon): > 100 µM; TGI (SW-620 colon): > 100 µM; TGI (OVCAR-8 ovarian): > 100 µM; TGI (UO-31 renal): > 100 µM; TGI (UACC-62 melanoma): > 100 µM; TGI (KM12 colon): > 100 µM; TGI (OVCAR-3 ovarian): > 100 µM; TGI (BT-549 breast): > 100 µM; TGI (SK-MEL-5 melanoma): > 100 µM; TGI (A498 renal): > 100 µM; TGI (SK-MEL-28 melanoma): > 100 µM; TGI (HT29 colon): > 100 µM; TGI (SF-539 CNS): > 100 µM; TGI (MDA-N): > 100 µM; TGI (OVCAR-5 ovarian): > 100 µM; TGI (PC-3 prostate): > 100 µM; TGI (IGROV1 ovarian): > 100 µM; TGI (CAKI-1 renal): > 100 µM; TGI (M14 melanoma): > 100 µM; TGI (EKVX NSCLC): > 100 µM; TGI (NCI/ADR-RES ovarian): > 100 µM; TGI (CCRF-CEM leukemia): 81.4 µM; TGI (MALME-3M melanoma): > 100 µM; TGI (COLO 205 colon): > 100 µM; TGI (UACC-257 melanoma): > 100 µM; TGI (MDA-MB-435): > 100 µM; TGI (MDA-MB-231 breast): > 100 µM; TGI (MCF7 breast): > 100 µM; TGI (SN12C renal): > 100 µM; TGI (T-47D breast): > 100 µM; TGI (SNB-75 CNS): > 100 µM; TGI (SF-268 CNS): > 100 µM
